Results: PubChem BioAssay (NCI)
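Each compound was tested at five concentrations against cells in 96-well plates for 48 hours. The concentration for 50% growth inhibition is given as GI50. Definition used: TGI = concentration required for complete inhibition of growth.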

Tests used:
Test in all cases: DTP human tumour cell line panel, 48 h
[1] = tested on: 786-0 renal
[2] = tested on: A498 renal
[3] = tested on: A549 NSCLC
[4] = tested on: ACHN renal
[5] = tested on: BT-549 breast
[6] = tested on: CAKI-1 renal
[7] = tested on: CCRF-CEM leukemia
[8] = tested on: COLO 205 colon
[9] = tested on: DU-145 prostate
[10] = tested on: EKVX NSCLC
[11] = tested on: HCC-2998 colon
[12] = tested on: HCT-116 colon
[13] = tested on: HCT-15 colon
[14] = tested on: HL-60(TB) leukemia
[15] = tested on: HOP-62 NSCLC
[16] = tested on: HOP-92 NSCLC
[17] = tested on: HS 578T breast
[18] = tested on: HT29 colon
[19] = tested on: IGROV1 ovarian
[20] = tested on: K-562 leukemia
[21] = tested on: KM12 colon
[22] = tested on: LOX IMVI melanoma
[23] = tested on: M14 melanoma
[24] = tested on: MALME-3M melanoma
[25] = tested on: MCF7 breast
[26] = tested on: MDA-MB-231 breast
[27] = tested on: MDA-MB-435
[28] = tested on: MOLT-4 leukemia
[29] = tested on: NCI-H226 lung
[30] = tested on: NCI-H23 lung
[31] = tested on: NCI-H460 lung
[32] = tested on: NCI-H522 lung
[33] = tested on: NCI/ADR-RES ovarian
[34] = tested on: OVCAR-3 ovarian
[35] = tested on: OVCAR-4 ovarian
[36] = tested on: OVCAR-5 ovarian
[37] = tested on: OVCAR-8 ovarian
[38] = tested on: PC-3 prostate
[39] = tested on: RPMI-8226 leukemia
[40] = tested on: RXF 393 renal
[41] = tested on: SF-268 CNS
[42] = tested on: SF-295 CNS
[43] = tested on: SF-539 CNS
[44] = tested on: SK-MEL-2 melanoma
[45] = tested on: SK-MEL-28 melanoma
[46] = tested on: SK-MEL-5 melanoma
[47] = tested on: SK-OV-3 ovarian
[48] = tested on: SN12C renal
[49] = tested on: SNB-19 CNS
[50] = tested on: SNB-75 CNS
[51] = tested on: SR leukemia
[52] = tested on: SW-620 colon
[53] = tested on: T-47D breast
[54] = tested on: TK-10 renal
[55] = tested on: U251 CNS
[56] = tested on: UACC-257 melanoma
[57] = tested on: UACC-62 melanoma
[58] = tested on: UO-31 renal

O=C(Nc1cccc(-c2nc(-c3ccc(NC(=O)c4cccs4)cc3Cl)no2)c1)Nc1ccc(NC(=O)C2CC2)c(C(F)(F)F)c1
GI50 [1]: 0.283 µM | TGI [1]: 1.01 µM | GI50 [2]: 0.174 µM | TGI [2]: 0.742 µM | GI50 [3]: 0.246 µM | TGI [3]: 0.653 µM | GI50 [4]: 0.467 µM | TGI [4]: 3.86 µM | GI50 [5]: 0.414 µM | TGI [5]: 2.43 µM | GI50 [6]: 0.244 µM | TGI [6]: 0.678 µM | GI50 [7]: 0.518 µM | TGI [7]: > 35.4 µM | GI50 [8]: 0.291 µM | TGI [8]: 0.903 µM | GI50 [9]: 0.317 µM | TGI [9]: 1.13 µM | GI50 [10]: 0.295 µM | TGI [10]: 1.2 µM | GI50 [11]: 0.321 µM | TGI [11]: 1.14 µM | GI50 [12]: 0.321 µM | TGI [12]: 1.69 µM | GI50 [13]: 0.409 µM | TGI [13]: 1.85 µM | GI50 [14]: 2.27 µM | TGI [14]: > 26.8 µM | GI50 [15]: 0.241 µM | TGI [15]: 0.624 µM | GI50 [16]: 0.18 µM | TGI [16]: 0.45 µM | GI50 [17]: 0.23 µM | TGI [17]: 0.678 µM | GI50 [18]: 0.347 µM | TGI [18]: 2.11 µM | GI50 [19]: 0.229 µM | TGI [19]: 0.574 µM | GI50 [20]: 0.296 µM | TGI [20]: 1.67 µM | GI50 [21]: 0.317 µM | TGI [21]: 1.05 µM | GI50 [22]: 0.185 µM | TGI [22]: 0.356 µM | GI50 [23]: 0.324 µM | TGI [23]: 1.27 µM | GI50 [24]: 0.183 µM | TGI [24]: 0.376 µM | GI50 [25]: 0.22 µM | TGI [25]: 0.643 µM | GI50 [26]: 0.219 µM | TGI [26]: 0.557 µM | GI50 [27]: 0.23 µM | TGI [27]: 0.547 µM | GI50 [28]: 0.359 µM | TGI [28]: 1.79 µM | GI50 [29]: 0.227 µM | TGI [29]: 0.601 µM | GI50 [30]: 0.226 µM | TGI [30]: 0.571 µM | GI50 [31]: 0.204 µM | TGI [31]: 0.412 µM | GI50 [32]: 0.244 µM | TGI [32]: 0.729 µM | GI50 [33]: 3.61 µM | TGI [33]: > 100 µM | GI50 [34]: 0.28 µM | TGI [34]: 0.778 µM | GI50 [35]: 0.223 µM | TGI [35]: 0.492 µM | GI50 [36]: 0.306 µM | TGI [36]: 1.14 µM | GI50 [37]: 0.311 µM | TGI [37]: 1.33 µM | GI50 [38]: 0.209 µM | TGI [38]: 0.46 µM | GI50 [39]: 0.396 µM | TGI [39]: 2.14 µM | GI50 [40]: 0.214 µM | TGI [40]: 0.494 µM | GI50 [41]: 0.344 µM | TGI [41]: 1.45 µM | GI50 [42]: 0.191 µM | TGI [42]: 0.37 µM | GI50 [43]: 0.188 µM | TGI [43]: 0.381 µM | GI50 [44]: 0.343 µM | TGI [44]: 1.29 µM | GI50 [45]: 0.209 µM | TGI [45]: 0.45 µM | GI50 [46]: 0.478 µM | TGI [46]: 1.87 µM | GI50 [47]: 0.795 µM | TGI [47]: 2.99 µM | GI50 [48]: 0.22 µM | TGI [48]: 0.576 µM | GI50 [49]: 0.301 µM | TGI [49]: 1.06 µM | GI50 [50]: 0.183 µM | TGI [50]: 1.01 µM | GI50 [51]: 0.254 µM | TGI [51]: 0.898 µM | GI50 [52]: 0.256 µM | TGI [52]: 0.66 µM | GI50 [53]: 0.257 µM | TGI [53]: 0.972 µM | GI50 [54]: 0.338 µM | TGI [54]: 1.54 µM | GI50 [55]: 0.193 µM | TGI [55]: 0.414 µM | GI50 [56]: 0.836 µM | TGI [56]: 3.23 µM | GI50 [57]: 0.205 µM | TGI [57]: 0.527 µM | GI50 [58]: 0.993 µM | TGI [58]: 3.09 µM
